As a reminder, the IC50 is the concentration needed to halve the response being measured. Read a low IC50 as inhibition by little substance.

Results on 40 compounds are retold here after ChEMBL document CHEMBL1147807, “Identification of 2-acylaminothiophene-3-carboxamides as potent inhibitors of FLT3” (Bioorg Med Chem Lett, 2006).

A value given as a limit tells only on which side of the number the result lay.

The first assay deals with MV4-11. Briefly: Antiproliferative activity against human MV4-11 cells.
`CC(=O)c1ccc(C(=O)Nc2sc3c(c2C(N)=O)CCCC3)cc1` gave an IC50 of 1800 nM. This counts as single-digit micromolar.

`COc1cc(OC)cc(C(=O)Nc2sc3c(c2C(N)=O)CCCC3)c1` yielded an IC50 of over 10000 nM.

`COc1cccc(C(=O)Nc2sc3c(c2C(N)=O)CCCC3)c1` had an IC50 of 1500 nM.

In turn, `NC(=O)c1c(NC(=O)CSc2ccccc2)sc2c1CCCC2` registered an IC50 of 3800 nM.

Take `Cc1ccc(/C=C/C(=O)Nc2sc3c(c2C(N)=O)CCCC3)o1`: the IC50 came to 10000 nM.

With `COc1ccc(/C=C/C(=O)Nc2sc3c(c2C(N)=O)CCCC3)cc1OC`, half-maximal inhibition (IC50) was put at 2000 nM.

The compound `NC(=O)c1c(NC(=O)c2ccccn2)sc2c1CCCC2` gave an IC50 of 350 nM.

As to `NC(=O)c1c(NC(=O)C2CC2)sc2c1CCCC2`, the IC50 is 1200 nM. Against the preceding compound, the IC50 is about 3.4-fold higher.

The compound `Cc1ccc(C(=O)Nc2sc3c(c2C(N)=O)CCCC3)cc1` gave a 50% inhibitory concentration (IC50) of 450 nM.

With `NC(=O)c1c(NC(=O)/C=C/c2ccccc2)sc2c1CCCC2`, half-maximal inhibition (IC50) was put at 530 nM.

Compound `COc1ccc(C(=O)Nc2sc(C)c(C)c2C(N)=O)cc1OC` showed an IC50 of 330 nM.

Compound `NC(=O)c1c(NC(=O)/C=C/c2ccco2)sc2c1CCCC2` displayed a half-maximal inhibitory concentration (IC50) of 480 nM.

In turn, `Cc1ccc(C(=O)Nc2sc3c(c2C(N)=O)CCCC3)cc1C` registered an IC50 of 710 nM.

`Cc1cccc(C(=O)Nc2sc3c(c2C(N)=O)CCCC3)c1` registered an IC50 of 3200 nM. Compared with the last compound, the IC50 is about 4.5-fold higher.

`COc1ccc(C(=O)Nc2sc3c(c2C(N)=O)CCCC3)cc1`: the concentration for half-maximal inhibition (IC50) turned out to be 1300 nM.

`NC(=O)c1c(NC(=O)c2ccco2)sc2c1CCCC2` showed an IC50 of 1500 nM.

As for `CC(C)(C)c1ccc(C(=O)Nc2sc3c(c2C(N)=O)CCCC3)cc1`, the midpoint of inhibition, the IC50, lay at 1600 nM.

Take `COc1ccc(CCC(=O)Nc2sc3c(c2C(N)=O)CCCC3)cc1`: the IC50 was over 10000 nM.

`NC(=O)c1c(NC(=O)c2cccnc2)sc2c1CCCC2` displayed an IC50 of 2000 nM.

In turn, `NC(=O)c1c(NC(=O)c2ccccc2)sc2c1CCCC2` gave an IC50 of over 10000 nM.

Consider `NC(=O)c1c(NC(=O)Cc2ccccc2)sc2c1CCCC2`, for which the IC50 is over 10000 nM.

In the case of `COc1ccc(/C=C/C(=O)Nc2sc3c(c2C(N)=O)CCCC3)cc1`, it took 1800 nM to reach half-maximal inhibition (IC50).

As for `NC(=O)c1c(NC(=O)c2ccncc2)sc2c1CCCC2`, the IC50 was 2100 nM.

The compound `NC(=O)c1c(NC(=O)c2ccc(Br)cc2)sc2c1CCCC2` yielded a half-inhibitory concentration (IC50) of 1500 nM.

Consider `COc1ccc(C(=O)Nc2sccc2C(N)=O)cc1OC`, for which the IC50 was found to be 2400 nM.

Regarding `CC(C)c1ccc(/C=C/C(=O)Nc2sc3c(c2C(N)=O)CCCC3)cc1`, the IC50 stood at 2700 nM.

`NC(=O)c1c(NC(=O)c2ccc(Cl)cc2)sc2c1CCCC2`: it took 1400 nM to reach half-maximal inhibition (IC50).

Compound `NC(=O)c1c(NC(=O)c2cccc(Cl)c2)sc2c1CCCC2` yielded an IC50 of 2200 nM.

`NC(=O)c1c(NC(=O)c2ccc3c(c2)OCO3)sc2c1CCCC2` yielded an IC50 of 890 nM.

As to `COc1ccc(C(=O)Nc2sc3c(c2C(N)=O)CCC3)cc1OC`, 410 nM corresponded to half-maximal inhibition (IC50).

A further assay concerns the target T1, Receptor-type tyrosine-protein kinase FLT3 (Homo sapiens, UniProt P36888).
T1 sequence (P36888 whole entry): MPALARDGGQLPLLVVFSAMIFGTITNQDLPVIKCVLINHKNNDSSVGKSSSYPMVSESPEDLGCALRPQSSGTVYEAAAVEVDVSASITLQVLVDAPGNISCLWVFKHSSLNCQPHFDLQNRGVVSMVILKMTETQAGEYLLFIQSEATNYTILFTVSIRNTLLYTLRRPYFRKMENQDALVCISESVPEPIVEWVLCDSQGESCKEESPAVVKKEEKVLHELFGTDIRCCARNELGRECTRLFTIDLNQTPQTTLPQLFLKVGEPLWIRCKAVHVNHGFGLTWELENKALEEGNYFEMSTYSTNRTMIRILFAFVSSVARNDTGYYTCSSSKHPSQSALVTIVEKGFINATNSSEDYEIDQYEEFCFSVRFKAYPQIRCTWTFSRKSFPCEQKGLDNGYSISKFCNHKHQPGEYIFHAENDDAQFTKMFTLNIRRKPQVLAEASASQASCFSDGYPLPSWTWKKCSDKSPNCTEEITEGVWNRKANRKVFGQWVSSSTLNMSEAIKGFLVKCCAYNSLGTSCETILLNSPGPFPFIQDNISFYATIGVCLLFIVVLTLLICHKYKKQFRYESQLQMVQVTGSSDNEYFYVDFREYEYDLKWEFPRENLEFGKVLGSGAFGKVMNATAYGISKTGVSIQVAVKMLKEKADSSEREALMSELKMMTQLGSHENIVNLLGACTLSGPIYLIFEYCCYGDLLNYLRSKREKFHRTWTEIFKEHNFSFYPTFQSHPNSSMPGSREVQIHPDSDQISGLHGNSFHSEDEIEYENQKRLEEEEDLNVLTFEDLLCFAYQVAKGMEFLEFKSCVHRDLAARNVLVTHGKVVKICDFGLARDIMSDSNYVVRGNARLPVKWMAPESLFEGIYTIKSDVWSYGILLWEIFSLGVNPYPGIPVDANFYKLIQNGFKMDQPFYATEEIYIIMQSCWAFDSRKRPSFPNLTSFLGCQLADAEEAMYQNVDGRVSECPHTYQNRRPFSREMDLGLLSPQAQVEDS
Briefly: Inhibition of FLT3.
`NC(=O)c1c(NC(=O)CSc2ccccc2)sc2c1CCCC2` came in with an IC50 of over 10000 nM.

`COc1cc(C(=O)Nc2sc3c(c2C(N)=O)CCCC3)cc(OC)c1OC`: the half-inhibitory concentration (IC50) was over 10000 nM.

The compound `NC(=O)c1c(NC(=O)C2CC2)sc2c1CCCC2` came in with a concentration for half-maximal inhibition (IC50) of 1300 nM. This counts as single-digit micromolar.

`NC(=O)c1c(NC(=O)c2ccc(Oc3ccccc3)cc2)sc2c1CCCC2` yielded an IC50 of over 10000 nM.

`CC(C)C(=O)Nc1sc2c(c1C(N)=O)CCCC2` had an IC50 of over 10000 nM.

Compound `NC(=O)c1c(NC(=O)C2CCCCC2)sc2c1CCCC2` displayed an IC50 of over 10000 nM.

`NC(=O)c1c(NC(=O)c2ccccc2Cl)sc2c1CCCC2` had an IC50 of over 10000 nM.

Take `NC(=O)c1c(NC(=O)c2cccnc2)sc2c1CCCC2`: the IC50 was determined as 1100 nM.

In turn, `NC(=O)c1c(NC(=O)c2ccccc2)sc2c1CCCC2` came in with an IC50 of 360 nM.

In turn, `NC(=O)c1c(NC(=O)COc2ccccc2)sc2c1CCCC2` showed an IC50 of over 10000 nM.

For the compound `COc1ccc(/C=C/C(=O)Nc2sc3c(c2C(N)=O)CCCC3)cc1`, the midpoint of inhibition, the IC50, lay at 250 nM.

Compound `NC(=O)c1c(NC(=O)c2ccncc2)sc2c1CCCC2` showed a half-maximal inhibitory concentration (IC50) of 110 nM.

Regarding `COc1ccc(C(=O)Nc2sc3c(c2C(N)=O)CCCCCC3)cc1OC`, the IC50 is over 100000 nM.

On to `COc1ccccc1C(=O)Nc1sc2c(c1C(N)=O)CCCC2`, for which the IC50 was over 10000 nM.

The compound `NC(=O)c1c(NC(=O)c2ccc(-c3ccccc3)cc2)sc2c1CCCC2` gave an IC50 of over 10000 nM.

With `CC(=O)Nc1sc2c(c1C(N)=O)CCCC2`, it took 2000 nM to reach half-maximal inhibition (IC50).
